Article PMC11202002, “P18: Novel Anticancer Peptide from Induced Tumor-Suppressing Cells Targeting Breast Cancer and Bone Metastasis” (Cancers, 2024)

Experiments:
MCF7 cells = assay: MTT-based cell viability assay; set-up: species or system human; details: 5, 10, 15, and 25 µg/mL of P18
Protocol: (§1) Using 96-well plates with approximately 2000 cells per well, an MTT-based metabolic activity assay was performed. The cells were treated with agents and incubated for two days. On the fourth day, they were stained with 0.5 mg/mL thiazolyl blue tetrazolium bromide (M5655, Sigma). The optical density, used to assess metabolic activity, was measured at 562 nm. For the EdU-based proliferation activity assay, the cells were seeded in 96-well plates at about 1000 cells per well. A fluorescence-based cell proliferation kit (Click-iT™, EdU Alexa Fluor™ 488 Imaging Kit; Thermo Fisher, Waltham, MA, USA) was used according to the manufacturer’s instructions.

MDA-MB-231 cells [1] = assay: MTT-based cell viability assay; set-up: species or system human
Protocol: as §1

MDA-MB-436 cells [2] = assay: MTT-based cell viability assay; set-up: species or system human
Protocol: as §1

PANC1 PDAC cells = assay: MTT-based cell viability assay; details: 25 μg/mL
Protocol: as §1

PANC198 PDAC cells = assay: MTT-based cell viability assay; details: PANC198 (PAN198); 25 μg/mL
Protocol: as §1

[3] = tested on: TT2 osteosarcoma cell line; assay: MTT-based cell viability assay; details: TT2; 25 μg/mL
Protocol: as §1

[4] = tested on: peripheral blood mononuclear cells; format: cell-based, human
Protocol: as §1

MDA-MB-231 cells [5] = assay: EdU-based proliferation assay; format: cell-based, human; details: 25 µg/mL
Protocol: as §1

MDA-MB-436 cells [6] = assay: EdU-based proliferation assay; format: cell-based, human; details: 25 µg/mL
Protocol: as §1

[7] = tested on: RANKL-stimulated osteoclasts; assay: Osteoclast differentiation and maturation; format: cell-based; details: 25 μg/mL
[8] = tested on: femurs inoculated with 4T1.2 mammary tumor cells; assay: Bone microenvironment assay (ex vivo bone culture, Western blot); format: cell-based, mouse; details: 25 μg/mL P18 daily; 2 weeks
Protocol: Cells were lysed using a RIPA lysis buffer (sc-24948, Santa Cruz Biotech, Dallas, TX, USA) containing protease inhibitors (PIA32963, Thermo Fisher) and phosphatase inhibitors (2006643, Cal-biochem, Billerica, MA, USA). The proteins were separated on 10–15% SDS gels (Bio-Rad Laboratories, Hercules, CA, USA) and transferred to a polyvinylidene difluoride membrane (IPVH00010, Millipore, Billerica, MA, USA). The membrane was incubated with primary antibodies, followed by incubation with secondary antibodies (7074S/7076S, Cell Signaling, Danvers, MA, USA). The antibodies used included those against Snail, p-Src, Src, cleaved caspase 3, caspase 3, RANKL, Cdc42, Col1 and RhoA (Cell Signaling), ALP (Santa Cruz Biotech), OCN (Abcam, Boston, MA, USA), with β-actin (Sigma) as a control. The protein levels were detected using SuperSignal West Femto Maximum Sensitivity Substrate (PI34096, Thermo Fisher) and a luminescent image analyzer (LAS-3000, Fuji Film, Tokyo, Japan).
Femora were collected from […] female mice (~10 weeks old), and the surrounding connective tissues were removed. The femora were cut in half at the mid-diaphysis, and a hole was created at the end of the sample using a 25-gauge needle. 4T1.2 mammary tumor cells (2.5 × 10^5 cells) were resuspended in 10 μL of culture medium and injected into the bone marrow cavity through the open end of the diaphysis. […]

[9] = relative to cn = 1.00, peptide concentration not given, treated two days, OD 562 nm

For TDYMVGSYGPR [P18], the “decrease in MTT viability” value (MCF7 cells) was “dose-dependent”, the “decrease in MTT viability” value (MDA-MB-231 cells [1]; 5, 10, 15, and 25 µg/mL of P18) was “dose-dependent” and the MTT-based relative viability (MDA-MB-231 cells [1]; [9]) was 0.86. The “decrease in MTT viability” value (MDA-MB-436 cells [2]; 5, 10, 15, and 25 µg/mL of P18) was “dose-dependent”, the MTT-based relative viability (MDA-MB-436 cells [2]; [9]) was 0.82 and the MTT-based viability (PANC1 PDAC cells) was “significantly decreased”. The MTT-based viability (PANC198 PDAC cells) was “significantly decreased”, the MTT-based viability [3] was “significantly decreased” and the MTT viability [4] was “did not exhibit any significant effects”. The EdU-based proliferation (MDA-MB-231 cells [5]) was “decreased”, the EdU-based proliferation (MDA-MB-436 cells [6]) was “inhibited” and the “differentiation and maturation of RANKL-stimulated osteoclasts” value [7] was “inhibited”. For the same sequence, the “number of multi-nucleated TRAP-positive osteoclasts (more than three nuclei)” value [7] was “significantly reduced” and the “levels of c-Cas 3, Cdc42, and alkaline phosphatase (ALP)” value [8] was “upregulation”.
